{
  "source": "patent US9113629B2",
  "about": "“4-amino-6-(4-substituted-phenyl)-picolinates and 6-amino-2-(4-substituted-phenyl)-pyrimidine-4-carboxylates and their use as herbicides” (DOW AGROSCIENCES LLC, priority 2013, dated 2015)",
  "key": {"[1]": {"test_system": "Key Broadleaf Weed and Crop Species", "assay": "Post-emergent Test II herbicidal activity (Table 5)", "assay_type": "in vivo", "conditions": "post-emergence, 336 h, 14 days after application; for pest or weed control at 70 g/ha: application rate 70 g ai/ha; for pest or weed control at 140 g/ha: application rate 140 g ai/ha", "method_in_brief": "(§1)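 Post-emergence foliar spray, 187 L/ha, track sprayer at 43 cm above canopy. Carrier: acetone/water/IPA/DMSO/Atplus 411F/Triton X-155. Plants at 1st–2nd true leaf; subirrigated afterwards; % injury scored visually at 14 d.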"}, "[2]": {"test_system": "Key Grass and Sedge Weeds as well as Grass Crops", "assay": "Post-emergent Test II herbicidal activity (Table 6)", "assay_type": "in vivo", "conditions": "post-emergence, 336 h; for pest or weed control at 70 g/ha: 70 g ai/ha; for pest or weed control at 140 g/ha: 140 g ai/ha", "method_in_brief": "as §1"}, "[3]": {"conditions": "ABUTH: velvetleaf (Abutilon theophrasti), read-out: Visual Growth Reduction (%) 14 Days After Application, ABUTH"}, "[4]": {"conditions": "AMARE: redroot pigweed (Amaranthus retroflexus), read-out: Visual Growth Reduction (%) 14 Days After Application, AMARE"}, "[5]": {"conditions": "BRSNN: oilseed-rape, canola (Brassica napus), read-out: Visual Growth Reduction (%) 14 Days After Application, BRSNN"}, "[6]": {"conditions": "CHEAL: lambsquarters (Chenopodium album), read-out: Visual Growth Reduction (%) 14 Days After Application, CHEAL"}, "[7]": {"conditions": "EPHHL: wild poinsettia (Euphorbia heterophylla), read-out: Visual Growth Reduction (%) 14 Days After Application, EPHHL"}, "[8]": {"conditions": "HELAN: sunflower (Helianthus annuus), read-out: Visual Growth Reduction (%) 14 Days After Application, HELAN"}, "[9]": {"conditions": "VIOTR: wild pansy (Viola tricolor), read-out: Visual Growth Reduction (%) 14 Days After Application, VIOTR"}, "[10]": {"conditions": "CYPES: yellow nutsedge (Cyperus esculentus), read-out: Visual Growth Reduction (%) 14 Days After Application, CYPES"}, "[11]": {"conditions": "DIGSA: crabgrass (Digitaria sanguinalis), read-out: Visual Growth Reduction (%) 14 Days After Application, DIGSA"}, "[12]": {"conditions": "ECHCG: barnyardgrass (Echinochloa crus-galli), read-out: Visual Growth Reduction (%) 14 Days After Application, ECHCG"}, "[13]": {"conditions": "ORYSA: rice (Oryza sativa), crop, read-out: Visual Growth Reduction (%) 14 Days After Application, ORYSA"}, "[14]": {"conditions": "SETFA: giant foxtail (Setaria faberi), read-out: Visual Growth Reduction (%) 14 Days After Application, SETFA"}, "[15]": {"conditions": "SORVU: grain sorghum (Sorghum vulgare), read-out: Visual Growth Reduction (%) 14 Days After Application, SORVU"}, "[16]": {"conditions": "TRZSS (wheat, Triticum aestivum), crop, read-out: Visual Growth Reduction (%) 14 Days After Application, TRZSS"}, "[17]": {"conditions": "ZEAMX: maize, corn (Zea mays), crop, read-out: Visual Growth Reduction (%) 14 Days After Application, ZEAMX"}},
  "note": "Where two headings read alike, the source gives them in different places.",
  "data": [
    {"smiles": "COc1c(N)nc(-c2ccc(Br)cc2)nc1C(=O)O", "note": "[Compound 54]", "values": [
      {"measurement": "pest or weed control at 70 g/ha", "setting": "[1]; [3]", "value": "85 to 94", "unit": "%"},
      {"measurement": "pest or weed control at 140 g/ha", "setting": "[1]; [3]", "value": "85 to 94", "unit": "%"},
      {"measurement": "pest or weed control at 70 g/ha", "setting": "[1]; [4]", "value": "95 to 100", "unit": "%"},
      {"measurement": "pest or weed control at 140 g/ha", "setting": "[1]; [4]", "value": "95 to 100", "unit": "%"},
      {"measurement": "pest or weed control at 70 g/ha", "setting": "[1]; [5]", "value": "95 to 100", "unit": "%"},
      {"measurement": "pest or weed control at 140 g/ha", "setting": "[1]; [5]", "value": "95 to 100", "unit": "%"},
      {"measurement": "pest or weed control at 70 g/ha", "setting": "[1]; [6]", "value": "95 to 100", "unit": "%"},
      {"measurement": "pest or weed control at 140 g/ha", "setting": "[1]; [6]", "value": "95 to 100", "unit": "%"},
      {"measurement": "pest or weed control at 70 g/ha", "setting": "[1]; [7]", "value": "95 to 100", "unit": "%"},
      {"measurement": "pest or weed control at 140 g/ha", "setting": "[1]; [7]", "value": "95 to 100", "unit": "%"},
      {"measurement": "pest or weed control at 70 g/ha", "setting": "[1]; [8]", "value": "85 to 94", "unit": "%"},
      {"measurement": "pest or weed control at 140 g/ha", "setting": "[1]; [8]", "value": "95 to 100", "unit": "%"},
      {"measurement": "pest or weed control at 70 g/ha", "setting": "[1]; [9]", "value": "30 to 44", "unit": "%"},
      {"measurement": "pest or weed control at 140 g/ha", "setting": "[1]; [9]", "value": "45 to 59", "unit": "%"},
      {"measurement": "pest or weed control at 70 g/ha", "setting": "[2]; [10]", "value": "45 to 59", "unit": "%"},
      {"measurement": "pest or weed control at 140 g/ha", "setting": "[2]; [10]", "value": "95 to 100", "unit": "%"},
      {"measurement": "pest or weed control at 70 g/ha", "setting": "[2]; [11]", "value": "0 to 29", "unit": "%"},
      {"measurement": "pest or weed control at 140 g/ha", "setting": "[2]; [11]", "value": "60 to 74", "unit": "%"},
      {"measurement": "pest or weed control at 70 g/ha", "setting": "[2]; [12]", "value": "95 to 100", "unit": "%"},
      {"measurement": "pest or weed control at 140 g/ha", "setting": "[2]; [12]", "value": "95 to 100", "unit": "%"},
      {"measurement": "pest or weed control at 70 g/ha", "setting": "[2]; [13]", "value": "0 to 29", "unit": "%"},
      {"measurement": "pest or weed control at 140 g/ha", "setting": "[2]; [13]", "value": "0 to 29", "unit": "%"},
      {"measurement": "pest or weed control at 70 g/ha", "setting": "[2]; [14]", "value": "75 to 84", "unit": "%"},
      {"measurement": "pest or weed control at 140 g/ha", "setting": "[2]; [14]", "value": "75 to 84", "unit": "%"},
      {"measurement": "pest or weed control at 70 g/ha", "setting": "[2]; [15]", "value": "60 to 74", "unit": "%"},
      {"measurement": "pest or weed control at 140 g/ha", "setting": "[2]; [15]", "value": "75 to 84", "unit": "%"},
      {"measurement": "pest or weed control at 70 g/ha", "setting": "[2]; [16]", "value": "45 to 59", "unit": "%"},
      {"measurement": "pest or weed control at 140 g/ha", "setting": "[2]; [16]", "value": "45 to 59", "unit": "%"},
      {"measurement": "pest or weed control at 70 g/ha", "setting": "[2]; [17]", "value": "95 to 100", "unit": "%"},
      {"measurement": "pest or weed control at 140 g/ha", "setting": "[2]; [17]", "value": "95 to 100", "unit": "%"}
    ]}
  ]
}
